Experimental findings from ChEMBL document CHEMBL3880422, “C-terminal modified oxamyl dipeptides as inhibitors of the ICE/ced-3 family of cysteine proteases” (2007) are described below.

Where a SMILES comes first, the peptide text is derived from it. The star is where a group is joined. Cbz = O=C(OCc1ccccc1)*; CH2F = FC*

The target of one experiment is T1, Caspase-1 (Mus musculus) (UniProt P29452).
T1 sequence (whole entry): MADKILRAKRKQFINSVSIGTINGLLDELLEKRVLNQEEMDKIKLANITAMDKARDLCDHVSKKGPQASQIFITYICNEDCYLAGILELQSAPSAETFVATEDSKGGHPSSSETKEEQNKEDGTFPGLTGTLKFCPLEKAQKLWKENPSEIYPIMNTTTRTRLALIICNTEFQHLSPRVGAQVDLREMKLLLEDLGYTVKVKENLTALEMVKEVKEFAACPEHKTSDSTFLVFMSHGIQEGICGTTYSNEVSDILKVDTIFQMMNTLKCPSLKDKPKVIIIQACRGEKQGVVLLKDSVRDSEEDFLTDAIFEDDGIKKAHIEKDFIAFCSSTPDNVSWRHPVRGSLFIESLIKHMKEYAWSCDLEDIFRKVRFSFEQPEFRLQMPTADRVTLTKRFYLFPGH
Kind of experiment: Inhibition of mouse recombinant ICE assessed as ratio of irreversible rate constant K3 to dissociation constant of the reversible binding step Ki pre-incubated for 60 mins with Acetyl-Tyr-Val-Ala-Asp-amino-4-methylcoumarin substrate followed by enzyme addition by fluorescence based assay.

The next experiment concerns the target T2, Caspase-3 (Homo sapiens) (UniProt P42574).
T2 sequence (whole entry): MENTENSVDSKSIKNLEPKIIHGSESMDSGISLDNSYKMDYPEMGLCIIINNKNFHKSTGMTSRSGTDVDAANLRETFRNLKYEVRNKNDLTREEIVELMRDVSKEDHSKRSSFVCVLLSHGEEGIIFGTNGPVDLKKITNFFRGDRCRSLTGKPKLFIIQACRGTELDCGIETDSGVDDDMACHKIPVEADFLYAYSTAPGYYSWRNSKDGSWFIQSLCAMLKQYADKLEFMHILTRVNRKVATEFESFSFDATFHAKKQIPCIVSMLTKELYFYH
Briefly: Inhibition of recombinant CPP32 (unknown origin) assessed as ratio of irreversible rate constant K3 to dissociation constant of the reversible binding step Ki pre-incubated for 60 mins with Acetyl-Tyr-Val-Ala-Asp-amino-4-methylcoumarin substrate followed by enzyme addition by fluorescence based assay.

A further experiment addresses T3, Caspase-6 (Homo sapiens) (UniProt P55212).
T3 sequence (whole entry): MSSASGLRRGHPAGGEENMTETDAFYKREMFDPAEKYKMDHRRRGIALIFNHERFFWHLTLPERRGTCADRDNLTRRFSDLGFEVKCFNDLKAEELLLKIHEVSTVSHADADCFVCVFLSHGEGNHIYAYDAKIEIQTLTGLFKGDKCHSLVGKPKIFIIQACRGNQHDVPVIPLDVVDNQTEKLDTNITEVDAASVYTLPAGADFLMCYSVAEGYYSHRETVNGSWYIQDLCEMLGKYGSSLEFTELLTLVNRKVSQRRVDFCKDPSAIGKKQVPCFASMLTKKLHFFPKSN
Kind of experiment: Inhibition of recombinant MCH2 (unknown origin) assessed as ratio of irreversible rate constant K3 to dissociation constant of the reversible binding step Ki pre-incubated for 60 mins with Acetyl-Tyr-Val-Ala-Asp-amino-4-methylcoumarin substrate followed by enzyme addition by fluorescence based assay.

Another experiment addresses Caspase-8 (Homo sapiens) (UniProt Q14790). Briefly: Inhibition of recombinant MCH5 (unknown origin) assessed as ratio of irreversible rate constant K3 to dissociation constant of the reversible binding step Ki pre-incubated for 60 mins with Acetyl-Tyr-Val-Ala-Asp-amino-4-methylcoumarin substrate followed by enzyme addition by fluorescence based assay.

Sequence of Caspase-8 (Homo sapiens) (Q14790 217-374 limits assumed): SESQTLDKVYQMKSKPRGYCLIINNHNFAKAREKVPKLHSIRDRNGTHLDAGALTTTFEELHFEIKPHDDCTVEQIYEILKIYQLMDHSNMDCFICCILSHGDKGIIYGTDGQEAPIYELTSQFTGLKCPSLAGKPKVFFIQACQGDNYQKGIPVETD
Sequence of Caspase-8 (Homo sapiens) (Q14790 385-479 limits assumed): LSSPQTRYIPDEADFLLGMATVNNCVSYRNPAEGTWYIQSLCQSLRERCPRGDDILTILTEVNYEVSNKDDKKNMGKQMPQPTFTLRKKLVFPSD

Turning to `CC(C)[C@H](NC(=O)C(=O)Nc1ccccc1Br)C(=O)N[C@@H](CC(=O)O)C(=O)COc1c(F)c(F)cc(F)c1F`, the Ratio at Caspase-1 (Mus musculus) is 1.08e+06 M⁻¹ s⁻¹; on Caspase-3 (Homo sapiens), 276000 M⁻¹ s⁻¹; at Caspase-6 (Homo sapiens), 230000 M⁻¹ s⁻¹; on Caspase-8 (Homo sapiens), 1.3e+06 M⁻¹ s⁻¹.
For `C[C@H](NC(=O)C(=O)NC1CCCCC1)C(=O)N[C@@H](CC(=O)O)C(=O)COP(=O)(c1ccccc1)c1ccccc1` the same measures were 2.03e+06 M⁻¹ s⁻¹, 137000 M⁻¹ s⁻¹, 97500 M⁻¹ s⁻¹ and 1.79e+06 M⁻¹ s⁻¹.
Taken in the same sequence, the figures for `C[C@H](NC(=O)C(=O)NCc1cccc2ccccc12)C(=O)N[C@@H](CC(=O)O)C(=O)COP(=O)(c1ccccc1)c1ccccc1` were 191000 M⁻¹ s⁻¹, 245000 M⁻¹ s⁻¹, 186000 M⁻¹ s⁻¹ and 82700 M⁻¹ s⁻¹.
Regarding `C[C@H](NC(=O)C(=O)Nc1ccccc1C(C)(C)C)C(=O)N[C@@H](CC(=O)O)C(=O)COP(=O)(c1ccccc1)c1ccccc1`, the Ratio on Caspase-1 (Mus musculus) was in the range of 159000 to 625000 M⁻¹ s⁻¹; on Caspase-3 (Homo sapiens), 327000 to 395000 M⁻¹ s⁻¹; on Caspase-6 (Homo sapiens), 275000 to 484000 M⁻¹ s⁻¹; at Caspase-8 (Homo sapiens), 282000 to 589000 M⁻¹ s⁻¹.
Taken in the same sequence, the figures for `CC(C)[C@H](NC(=O)C(=O)Nc1ccccc1C(F)(F)F)C(=O)N[C@@H](CC(=O)O)C(=O)COc1c(F)c(F)cc(F)c1F` were 1.04e+06 M⁻¹ s⁻¹, 57400 M⁻¹ s⁻¹, 261000 M⁻¹ s⁻¹ and 41000 M⁻¹ s⁻¹.
Consider `CC(C)[C@H](NC(=O)OCc1ccccc1)C(=O)N[C@@H](C)C(=O)N[C@@H](CC(=O)O)C(=O)CF` (Cbz-Val-Ala-Asp-CH2F), for which the Ratio on Caspase-1 (Mus musculus) was 214000 M⁻¹ s⁻¹; at Caspase-3 (Homo sapiens), 12200 M⁻¹ s⁻¹; at Caspase-6 (Homo sapiens) it was 2950 M⁻¹ s⁻¹; at Caspase-8 (Homo sapiens), 83300 M⁻¹ s⁻¹.
Taken in the same sequence, the figures for `CCCOc1ccc(OCC(=O)[C@H](CC(=O)O)NC(=O)[C@@H](NC(=O)C(=O)Nc2cccc3ccccc23)C(C)C)cc1` were 825000 M⁻¹ s⁻¹, 167000 M⁻¹ s⁻¹, 63000 M⁻¹ s⁻¹ and 286000 M⁻¹ s⁻¹.
Taken in the same sequence, the figures for `C[C@H](NC(=O)C(=O)Nc1cc(C(C)(C)C)ccc1C(C)(C)C)C(=O)N[C@@H](CC(=O)O)C(=O)COC(=O)c1c(Cl)cccc1Cl` were 289000 M⁻¹ s⁻¹, 189000 M⁻¹ s⁻¹, 146000 M⁻¹ s⁻¹ and 306000 M⁻¹ s⁻¹.
Consider `CC(C)[C@H](NC(=O)C(=O)Nc1ccccc1F)C(=O)N[C@@H](CC(=O)O)C(=O)COc1c(F)c(F)cc(F)c1F`, for which the Ratio came out at 58500 M⁻¹ s⁻¹ at Caspase-1 (Mus musculus), 5560 M⁻¹ s⁻¹ on Caspase-3 (Homo sapiens), 11200 M⁻¹ s⁻¹ at Caspase-6 (Homo sapiens) and 49600 M⁻¹ s⁻¹ on Caspase-8 (Homo sapiens).
For `CC(C)[C@H](NC(=O)C(=O)Nc1ccccc1)C(=O)N[C@@H](CC(=O)O)C(=O)COc1c(F)c(F)cc(F)c1F` the same measures were 1.49e+06 M⁻¹ s⁻¹, 36000 M⁻¹ s⁻¹, 25500 M⁻¹ s⁻¹ and 598000 M⁻¹ s⁻¹.
For `C[C@H](NC(=O)C(=O)Nc1ccccc1-c1ccccc1)C(=O)N[C@@H](CC(=O)O)C(=O)COC(=O)c1c(Cl)cccc1Cl` the same measures were 259000 M⁻¹ s⁻¹, 388000 M⁻¹ s⁻¹, 219000 M⁻¹ s⁻¹ and 125000 M⁻¹ s⁻¹.
Taken in the same sequence, the figures for `C[C@H](NC(=O)C(=O)Nc1ccccc1Cl)C(=O)N[C@@H](CC(=O)O)C(=O)COC(=O)c1c(Cl)cccc1Cl` were 278000 to 1.94e+06 M⁻¹ s⁻¹, 323000 to 842000 M⁻¹ s⁻¹, 281000 to 745000 M⁻¹ s⁻¹ and 396000 to 1.63e+06 M⁻¹ s⁻¹.
As for `CC(C)[C@H](NC(=O)C(=O)Nc1ccncc1)C(=O)N[C@@H](CC(=O)O)C(=O)COc1c(F)c(F)cc(F)c1F`, the Ratio at Caspase-1 (Mus musculus) is 912 M⁻¹ s⁻¹; on Caspase-3 (Homo sapiens), 511 M⁻¹ s⁻¹; at Caspase-6 (Homo sapiens), 5580 M⁻¹ s⁻¹; at Caspase-8 (Homo sapiens), 1140 M⁻¹ s⁻¹.
For `C[C@H](NC(=O)C(=O)NCCc1ccccc1)C(=O)N[C@@H](CC(=O)O)C(=O)COP(=O)(c1ccccc1)c1ccccc1` the same measures were 1.23e+06 M⁻¹ s⁻¹, 169000 M⁻¹ s⁻¹, 131000 M⁻¹ s⁻¹ and 667000 M⁻¹ s⁻¹.
For `C[C@H](NC(=O)C(=O)Nc1cc(C(C)(C)C)ccc1C(C)(C)C)C(=O)N[C@@H](CC(=O)O)C(=O)COc1c(F)c(F)cc(F)c1F` the same measures were 195000 M⁻¹ s⁻¹, 221000 M⁻¹ s⁻¹, 192000 M⁻¹ s⁻¹ and 248000 M⁻¹ s⁻¹.
Taken in the same sequence, the figures for `C[C@H](NC(=O)C(=O)NC12CC3CC(CC(C3)C1)C2)C(=O)N[C@@H](CC(=O)O)C(=O)COP(=O)(c1ccccc1)c1ccccc1` were 27600 to 242000 M⁻¹ s⁻¹, 149000 to 243000 M⁻¹ s⁻¹, 124000 to 445000 M⁻¹ s⁻¹ and 50400 to 643000 M⁻¹ s⁻¹.
As to `C[C@H](NC(=O)C(=O)Nc1ccccc1C(C)(C)C)C(=O)N[C@@H](CC(=O)O)C(=O)COc1ccccc1F`, the Ratio at Caspase-1 (Mus musculus) worked out at 442000 M⁻¹ s⁻¹; at Caspase-3 (Homo sapiens), 67700 M⁻¹ s⁻¹; on Caspase-6 (Homo sapiens), 54900 M⁻¹ s⁻¹; on Caspase-8 (Homo sapiens) it was 119000 M⁻¹ s⁻¹.
For `CC(C)[C@H](NC(=O)C(=O)Nc1cccc2ccccc12)C(=O)N[C@@H](CC(=O)O)C(=O)COc1cccc2ccccc12` the same measures were 254000 M⁻¹ s⁻¹, 180000 M⁻¹ s⁻¹, 83700 M⁻¹ s⁻¹ and 177000 M⁻¹ s⁻¹.
Taken in the same sequence, the figures for `CC(C)[C@H](NC(=O)C(=O)Nc1ccccc1Cl)C(=O)N[C@@H](CC(=O)O)C(=O)COc1c(F)c(F)cc(F)c1F` were 1.54e+06 M⁻¹ s⁻¹, 96300 M⁻¹ s⁻¹, 161000 M⁻¹ s⁻¹ and 234000 M⁻¹ s⁻¹.
In the case of `CC(C)[C@H](NC(=O)C(=O)NC1CCCc2ccccc21)C(=O)N[C@@H](CC(=O)O)C(=O)COc1c(F)c(F)cc(F)c1F` (stereo partly specified), the Ratio on Caspase-1 (Mus musculus) is 2.32e+06 M⁻¹ s⁻¹; on Caspase-3 (Homo sapiens) it was 98600 M⁻¹ s⁻¹; on Caspase-6 (Homo sapiens), 160000 M⁻¹ s⁻¹; at Caspase-8 (Homo sapiens), 456000 M⁻¹ s⁻¹.
Taken in the same sequence, the figures for `C[C@H](NC(=O)C(=O)Nc1cccc2c1CCCC2)C(=O)N[C@@H](CC(=O)O)C(=O)COP(=O)(c1ccccc1)c1ccccc1` were 315000 to 905000 M⁻¹ s⁻¹, 139000 to 157000 M⁻¹ s⁻¹, 120000 to 132000 M⁻¹ s⁻¹ and 71800 to 1.15e+06 M⁻¹ s⁻¹.
Taken in the same sequence, the figures for `CC(C)[C@H](NC(=O)C(=O)NCCc1ccccc1)C(=O)N[C@@H](CC(=O)O)C(=O)COc1c(F)c(F)cc(F)c1F` were 77100 M⁻¹ s⁻¹, 13400 M⁻¹ s⁻¹, 12600 M⁻¹ s⁻¹ and 16600 M⁻¹ s⁻¹.
Taken in the same sequence, the figures for `C[C@H](NC(=O)C(=O)NCc1ccccc1)C(=O)N[C@@H](CC(=O)O)C(=O)COc1c(F)c(F)cc(F)c1F` were 13900 M⁻¹ s⁻¹, 54300 M⁻¹ s⁻¹, 42800 M⁻¹ s⁻¹ and 23100 M⁻¹ s⁻¹.
As to `CC(C)[C@H](NC(=O)C(=O)Nc1ccc(F)cc1)C(=O)N[C@@H](CC(=O)O)C(=O)COc1c(F)c(F)cc(F)c1F`, the Ratio at Caspase-1 (Mus musculus) amounted to 906000 M⁻¹ s⁻¹; at Caspase-3 (Homo sapiens), 36300 M⁻¹ s⁻¹; on Caspase-6 (Homo sapiens), 121000 M⁻¹ s⁻¹; at Caspase-8 (Homo sapiens), 338000 M⁻¹ s⁻¹.
Taken in the same sequence, the figures for `CC(C)[C@H](NC(=O)C(=O)Nc1ccccn1)C(=O)N[C@@H](CC(=O)O)C(=O)COc1c(F)c(F)cc(F)c1F` were 36000 M⁻¹ s⁻¹, 9850 M⁻¹ s⁻¹, 11600 M⁻¹ s⁻¹ and 19500 M⁻¹ s⁻¹.
Take `CC(C)[C@H](NC(=O)C(=O)Nc1ccccc1I)C(=O)N[C@@H](CC(=O)O)C(=O)COc1c(F)c(F)cc(F)c1F`: the Ratio on Caspase-1 (Mus musculus) came out at 1.26e+06 M⁻¹ s⁻¹; on Caspase-3 (Homo sapiens), 42300 M⁻¹ s⁻¹; on Caspase-6 (Homo sapiens) it was 137000 M⁻¹ s⁻¹; at Caspase-8 (Homo sapiens) it was 1.03e+06 M⁻¹ s⁻¹.
For `C[C@H](NC(=O)C(=O)NCc1cccc2ccccc12)C(=O)N[C@@H](CC(=O)O)C(=O)COC(=O)c1c(Cl)cccc1Cl` the same measures were 1.16e+06 M⁻¹ s⁻¹, 187000 M⁻¹ s⁻¹, 214000 M⁻¹ s⁻¹ and 936000 M⁻¹ s⁻¹.
Taken in the same sequence, the figures for `C[C@H](NC(=O)C(=O)Nc1ccccc1F)C(=O)N[C@@H](CC(=O)O)C(=O)COc1c(F)c(F)cc(F)c1F` were 339000 M⁻¹ s⁻¹, 478000 M⁻¹ s⁻¹, 212000 M⁻¹ s⁻¹ and 170000 M⁻¹ s⁻¹.
Taken in the same sequence, the figures for `C[C@H](NC(=O)C(=O)NC1CCCCC1)C(=O)N[C@@H](CC(=O)O)C(=O)COC(=O)c1c(Cl)cccc1Cl` were 2.02e+06 M⁻¹ s⁻¹, 1.17e+06 M⁻¹ s⁻¹, 655000 M⁻¹ s⁻¹ and 2.14e+06 M⁻¹ s⁻¹.
